From BindingDB's records for doi:10.1021/jm9806300 (Massachusetts General Hospital, 1999)

Biological target: muscle nicotinic acetylcholine receptor (Mus musculus)
Assay: The compound was tested for inhibitory potency against Nicotinic acetylcholine receptor in mouse muscle.

Q: `CCCCCC1(CCO)N=N1` [2-(3-Pentyl-3H-diazirin-3-yl)-ethanol] was tested. Which IC50 did it give?
A: 33 µM
